Assay results from patent US12122778B2, “Activating pyruvate kinase R” (Novo Nordisk Health Care AG, priority 2018, dated 2024).
Read-outs that look alike come from different tables or passages of the source.

Assays:
PKR(G332S) = PKR(G332S) (Homo sapiens, UniProt P30613, G332S); assay: Luminescence Biochemical Assay (Kinase Glo Plus), PKR G332S mutant; conditions: with FBP; for activation at 1.54 µM: 1.54 μM compound, read-out: AC50 LUM KGP FBP % Fold@1.54 μM mean; for Emax: read-out: AC50 LUM KGP FBP MAX % FOLD mean
Procedure: (§1) In some embodiments, a PKR Activating Compound can have: (1) an AC50 value of less than 0.1 μM (e.g., compounds with AC50 values of “+++” in Table 13), 0.1-1.0 μM (e.g., compounds with AC50 values of “++” in Table 13), or 1.01-40 μM (e.g., compounds with AC50 values of “+” in Table 13); (2) a MAX % Fold of 75%-250%, 250-500%, or 75%-500%; and/or (3) a % Fold@1.54 μM of 75%-250%, 250-500%, or 75%-500%. In some embodiments, a PKR Activating Compound has (1) an AC50 value of less than 1.0 μM; (2) a MAX % Fold of 75%-500%; and/or (3) a % Fold@1.54 μM of 75%-500%.
(§2) The phosphorylation of Adenosine-5′-diphosphate (ADP) by various mutants of PKR was determined by the Kinase Glo Plus Assay (Promega) in the presence or absence of FBP [D-Fructose-1,6-diphosphate; BOC Sciences, CAS: 81028-91-3] as follows. Unless otherwise indicated, all reagents were purchased from Sigma-Aldrich. All reagents were prepared in buffer containing 50 mM Tris-HCl, 100 mM KCl, 5 mM MgCl2, and 0.01% Triton X100, 0.03% BSA, and 1 mM DTT. Enzyme and PEP [Phospho(enol) pyruvic acid] were added at 2× to all wells of an assay-ready plate containing serial dilutions of test compounds or DMSO vehicle. Final enzyme concentrations for PKR(wt), PKR(R510Q), and PKR(G332S) were 0.8 nM, 0.8 nM, and 10 nM respectively. Final PEP concentration was 100 μM. The Enzyme/PEP mixture was incubated with compounds for 30 minutes at RT before the assay was initiated with the addition of 2×ADP [Adenosine-5′-diphosphate] and KinaseGloPlus. Final concentration of ADP was 100 μM. […] For assays containing FBP, that reagent is added at 30 μM upon reaction initiation. Reactions were allowed to progress for 45 minutes at RT until luminescence was recorded by the BMG PHERAstar FS Multilabel Reader. All compounds were tested in triplicate at concentrations ranging from 42.5 μM to 2.2 nM in 0.83% DMSO.
(§3) Luminescence values were converted to % Fold increase by normalizing to the average of the DMSO control and multiplying by 100. Max, min, slope and AC50 were determined by the standard four parameter fit algorithm of ActivityBase XE Runner. Compounds were evaluated with three parameters—AC50, MAX % Fold, and % Fold@1.54 μM (FIG. 1). The AC50 value for a compound is the concentration (μM) corresponding to the midway between the maximum and minimum values of the four parameter logistic curve fit (i.e., at which the % fold increase along the four parameter logistic curve fit is halfway between MAX % Fold and MIN % Fold (% Fold Midpoint)), MAX % Fold is the highest fold increase observed at any concentration of compound, and % Fold@1.54 μM is the fold increase at a compound concentration of 1.54 μM. The parameter % Fold@1.54 μM was selected to capture elements of both the AC50 and MAX % Fold and to provide a ranking based on both potency and effect. The compound concentration of 1.54 μM was chosen as one that can optimally differentiate the set of compounds based on the range of activities observed.
(§4) As set forth in Table 13 below, AC50 values (columns A, D, G) are defined as follows: ≤0.1 μM (+++); >0.1 μM and ≤1.0 μM (++); >1.0 μM and ≤40 μM (+); >40 μM (0). Max % FOLD values (columns B, E, H) are defined as follows: ≤75% (+); >75% and ≤250% (++); >250% and ≤500% (+++). % Fold@1.54 μM values (columns C, F, J) are defined as follows: ≤75% (+); >75% and ≤250% (++); >250% and ≤50000 (+++).

PKR(R510Q) = PKR(R510Q) (Homo sapiens, UniProt P30613, R510Q); assay: Luminescence Biochemical Assay (Kinase Glo Plus), PKR R510Q mutant; conditions: without FBP; for activation at 1.54 µM: 1.54 μM compound, read-out: AC50 LUM KGP woFBP % Fold@1.54 μM mean; for Emax: read-out: AC50 LUM KGP woFBP MAX % FOLD mean
Procedure: as §1, §2, §3, §4

PKR(wt) = PKR(wt) (Homo sapiens, UniProt P30613); assay: Luminescence Biochemical Assay (Kinase Glo Plus), wild type PKR; conditions: without FBP; for activation at 1.54 µM: 1.54 μM compound, read-out: AC50 LUM KGP woFBP % Fold@1.54 μM mean; for AC50: read-out: AC50 LUM KGP woFBP AC50 μM gmean; for Emax: read-out: AC50 LUM KGP woFBP MAX % FOLD mean
[1] = read-out: AC50 LUM KGP FBP AC50 μM gmean (column A)
[2] = read-out: AC50 LUM KGP woFBP AC50 μM gmean

Chain of PKR(R510Q) (P30613 whole entry R510Q): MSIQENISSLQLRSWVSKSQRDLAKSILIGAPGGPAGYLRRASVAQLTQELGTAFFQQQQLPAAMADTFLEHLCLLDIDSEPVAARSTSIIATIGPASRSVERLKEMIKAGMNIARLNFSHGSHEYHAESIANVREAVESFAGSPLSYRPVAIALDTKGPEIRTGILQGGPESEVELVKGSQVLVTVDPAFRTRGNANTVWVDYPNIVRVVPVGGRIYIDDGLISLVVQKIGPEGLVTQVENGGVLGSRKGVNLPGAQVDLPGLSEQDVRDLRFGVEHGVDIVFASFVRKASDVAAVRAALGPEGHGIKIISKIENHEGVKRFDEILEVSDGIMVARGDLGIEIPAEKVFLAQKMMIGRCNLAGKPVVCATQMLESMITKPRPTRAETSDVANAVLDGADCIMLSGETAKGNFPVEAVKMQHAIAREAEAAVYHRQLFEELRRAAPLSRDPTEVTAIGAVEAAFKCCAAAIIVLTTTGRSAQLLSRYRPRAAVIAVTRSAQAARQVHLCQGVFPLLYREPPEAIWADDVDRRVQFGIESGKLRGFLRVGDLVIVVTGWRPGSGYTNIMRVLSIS
Chain of PKR(wt) (P30613 whole entry): as the sequence (P30613 whole entry R510Q) above, with Q510R counted along it
Chain of PKR(G332S) (P30613 whole entry G332S): as the sequence (P30613 whole entry R510Q) above, with G332S, Q510R counted along it

| SMILES | activation at 1.54 µM (PKR(G332S)) | AC50 (PKR(G332S); [1]) | Emax (PKR(G332S)) | activation at 1.54 µM (PKR(R510Q)) | AC50 (PKR(R510Q); [2]) | Emax (PKR(R510Q)) | AC50 (PKR(G332S); gmean, read-out: A - AC50 LUM KGP FBP AC50 μM gmean) | AC50 (PKR(R510Q); gmean, read-out: D - AC50 LUM KGP woFBP AC50 μM gmean) | activation at 1.54 µM (PKR(wt)) | AC50 (PKR(wt)) | Emax (PKR(wt)) |
| --- | --- | --- | --- | --- | --- | --- | --- | --- | --- | --- | --- |
| COCCNC(=O)N1CC2=C(C1)CN(S(=O)(=O)c1ccc3c(c1)N(C)CCO3)C2 [Example 21-24] | 75 to 250% | 0.1 to 1 µM | 75 to 250% | 75 to 250% | 0.1 to 1 µM | 250 to 500% | – | – | – | – | – |
| COc1cccc(CNC(=O)N2CC3=C(C2)CN(S(=O)(=O)c2ccc(F)cc2)C3)c1 [Example 20-4, 5-(4-Fluorobenzenesulfonyl)-N-[(3-methoxyphenyl)methyl]-1H,2H,3H,4H,5H,6H-pyrrolo[3,4-c]pyrrole-2-carboxamide] | 75 to 250% | 0.1 to 1 µM | 75 to 250% | 75 to 250% | 0.1 to 1 µM | 75 to 250% | – | – | – | – | – |
| Cc1nc(S(=O)(=O)N2CC3=C(CN(C(=O)[C@H](C)c4ccccc4)C3)C2)cn1C [Example 19-3, (2R)-1-{5-[(1,2-dimethyl-1H-imidazol-4-yl)sulfonyl]-1H,2H,3H,4H,5H,6H-pyrrolo[3,4-c]pyrrol-2-yl}-2-phenylpropan-1-one] | 75 to 250% | 0.1 to 1 µM | 75 to 250% | 75 to 250% | 1 to 40 µM | 75 to 250% | – | – | – | – | – |
| Cc1cc(CNC(=O)N2CC3=C(C2)CN(S(=O)(=O)c2ccc4ncsc4c2)C3)no1 [Example 21-8, 5-(1,3-Benzothiazole-6-sulfonyl)-N-[(5-methyl-1,2-oxazol-3-yl)methyl]-1H,2H,3H,4H,5H,6H-pyrrolo[3,4-c]pyrrole-2-carboxamide] | 75 to 250% | ≤ 0.1 µM | 75 to 250% | 250 to 50000% | ≤ 0.1 µM | 250 to 500% | – | – | – | – | – |
| O=C(NCc1ccc(F)cc1)N1CC2=C(C1)CN(S(=O)(=O)c1ccc3nsnc3c1)C2 [Example 20-28, 5-(2,1,3-Benzothiadiazole-5-sulfonyl)-N-[(4-fluorophenyl)methyl]-1H,2H,3H,4H,5H,6H-pyrrolo[3,4-c]pyrrole-2-carboxamide] | 75 to 250% | 1 to 40 µM | 75 to 250% | 75 to 250% | 1 to 40 µM | 75 to 250% | – | – | – | – | – |
| COc1ccccc1CNC(=O)N1CC2=C(C1)CN(S(=O)(=O)c1ccc(F)cc1)C2 [Example 20-6, 5-(4-Fluorobenzenesulfonyl)-N-[(2-methoxyphenyl)methyl]-1H,2H,3H,4H,5H,6H-pyrrolo[3,4-c]pyrrole-2-carboxamide] | 75 to 250% | ≤ 0.1 µM | 75 to 250% | 75 to 250% | 0.1 to 1 µM | 250 to 500% | – | – | – | – | – |
| CN1CCOc2ccc(S(=O)(=O)N3CC4=C(CN(C(=O)NCc5ccc(F)cc5)C4)C3)cc21 [Example 21-26, N-[(4-fluorophenyl)methyl]-5-[(4-methyl-3,4-dihydro-2H-1,4-benzoxazin-6-yl)sulfonyl]-1H,2H,3H,4H,5H,6H-pyrrolo[3,4-c]pyrrole-2-carboxamide] | 75 to 250% | 1 to 40 µM | 75 to 250% | 75 to 250% | 0.1 to 1 µM | 75 to 250% | – | – | – | – | – |
| C[C@@H](C(=O)N1CC2=C(C1)CN(S(=O)(=O)c1c[nH]c3c(Cl)nccc13)C2)c1ccccc1 [Example 25] | – | – | – | – | – | – | 1 to 40 µM | 1 to 40 µM | – | – | – |
| COc1cccc(CNC(=O)N2CC3=C(C2)CN(S(=O)(=O)c2cccc4cnccc24)C3)c1 [Example 20-12, 5-(Isoquinoline-5-sulfonyl)-N-[(3-methoxyphenyl)methyl]-1H,2H,3H,4H,5H,6H-pyrrolo[3,4-c]pyrrole-2-carboxamide] | 75 to 250% | 1 to 40 µM | 75 to 250% | 75 to 250% | 1 to 40 µM | 75 to 250% | – | – | – | – | – |
| COc1cccc(CNC(=O)N2CC3=C(C2)CN(S(=O)(=O)c2cccc(F)c2)C3)c1 [Example 20-8, 5-(3-Fluorobenzenesulfonyl)-N-[(3-methoxyphenyl)methyl]-1H,2H,3H,4H,5H,6H-pyrrolo[3,4-c]pyrrole-2-carboxamide] | 75 to 250% | 1 to 40 µM | 75 to 250% | 75 to 250% | 0.1 to 1 µM | 75 to 250% | – | – | – | – | – |
| O=C(NCc1ccc(F)cc1)N1CC2=C(C1)CN(S(=O)(=O)c1cccc3nonc13)C2 [Example 20-24, 5-(2,1,3-Benzoxadiazole-4-sulfonyl)-N-[(4-fluorophenyl)methyl]-1H,2H,3H,4H,5H,6H-pyrrolo[3,4-c]pyrrole-2-carboxamide] | 75 to 250% | 1 to 40 µM | 75 to 250% | 75 to 250% | 0.1 to 1 µM | 250 to 500% | – | – | – | – | – |
| Cc1noc(C)c1S(=O)(=O)N1CC2=C(CN(C(=O)[C@H](O)c3ccccc3)C2)C1 [Example 18-44, (2R)-1-{5-[(dimethyl-1,2-oxazol-4-yl)sulfonyl]-1H,2H,3H,4H,5H,6H-pyrrolo[3,4-c]pyrrol-2-yl}-2-hydroxy-2-phenylethan-1-one] | 75 to 250% | 1 to 40 µM | 75 to 250% | 75 to 250% | 1 to 40 µM | 75 to 250% | – | – | – | – | – |
| COc1ccccc1CNC(=O)N1CC2=C(C1)CN(S(=O)(=O)c1cccc3nonc13)C2 [Example 20-19, 5-(2,1,3-Benzoxadiazole-4-sulfonyl)-N-[(2-methoxyphenyl)methyl]-1H,2H,3H,4H,5H,6H-pyrrolo[3,4-c]pyrrole-2-carboxamide] | 75 to 250% | 1 to 40 µM | 75 to 250% | 75 to 250% | 0.1 to 1 µM | 250 to 500% | – | – | – | – | – |
| O=C([C@H](O)c1ccccc1)N1CC2=C(C1)CN(S(=O)(=O)c1cccc(C(F)(F)F)c1)C2 [Example 18-49, (2R)-2-hydroxy-2-phenyl-1-{5-[3-(trifluoromethyl)benzenesulfonyl]-1H,2H,3H,4H,5H,6H-pyrrolo[3,4-c]pyrrol-2-yl}ethan-1-one] | – | – | – | 75 to 250% | 0.1 to 1 µM | 75 to 250% | – | – | 75 to 250% | 0.1 to 1 µM | 75 to 250% |
| Cc1cccc(CNC(=O)N2CC3=C(C2)CN(S(=O)(=O)c2ccc4ncsc4c2)C3)n1 [Example 21-32, 5-(1,3-Benzothiazole-6-sulfonyl)-N-[(6-methylpyridin-2-yl)methyl]-1H,2H,3H,4H,5H,6H-pyrrolo[3,4-c]pyrrole-2-carboxamide] | – | – | – | 250 to 50000% | 0.1 to 1 µM | 250 to 500% | – | – | 250 to 50000% | 0.1 to 1 µM | 250 to 500% |
| CC(C)Oc1cccc(CNC(=O)N2CC3=C(C2)CN(S(=O)(=O)c2ccc4ncsc4c2)C3)c1 [Example 21-21, 5-(1,3-Benzothiazole-6-sulfonyl)-N-{[3-(propan-2-yloxy)phenyl]methyl}-1H,2H,3H,4H,5H,6H-pyrrolo[3,4-c]pyrrole-2-carboxamide] | – | – | – | 75 to 250% | 1 to 40 µM | 75 to 250% | – | – | 75 to 250% | 0.1 to 1 µM | 75 to 250% |
